Like-named read-outs stand apart in the source and are kept apart here.

The target of this assay is T1, AR protein in VCaP cells (Homo sapiens, UniProt P10275).
T1 construct: endogenous in cells; host or cells: VCaP cells
T1 sequence (P10275 1-920): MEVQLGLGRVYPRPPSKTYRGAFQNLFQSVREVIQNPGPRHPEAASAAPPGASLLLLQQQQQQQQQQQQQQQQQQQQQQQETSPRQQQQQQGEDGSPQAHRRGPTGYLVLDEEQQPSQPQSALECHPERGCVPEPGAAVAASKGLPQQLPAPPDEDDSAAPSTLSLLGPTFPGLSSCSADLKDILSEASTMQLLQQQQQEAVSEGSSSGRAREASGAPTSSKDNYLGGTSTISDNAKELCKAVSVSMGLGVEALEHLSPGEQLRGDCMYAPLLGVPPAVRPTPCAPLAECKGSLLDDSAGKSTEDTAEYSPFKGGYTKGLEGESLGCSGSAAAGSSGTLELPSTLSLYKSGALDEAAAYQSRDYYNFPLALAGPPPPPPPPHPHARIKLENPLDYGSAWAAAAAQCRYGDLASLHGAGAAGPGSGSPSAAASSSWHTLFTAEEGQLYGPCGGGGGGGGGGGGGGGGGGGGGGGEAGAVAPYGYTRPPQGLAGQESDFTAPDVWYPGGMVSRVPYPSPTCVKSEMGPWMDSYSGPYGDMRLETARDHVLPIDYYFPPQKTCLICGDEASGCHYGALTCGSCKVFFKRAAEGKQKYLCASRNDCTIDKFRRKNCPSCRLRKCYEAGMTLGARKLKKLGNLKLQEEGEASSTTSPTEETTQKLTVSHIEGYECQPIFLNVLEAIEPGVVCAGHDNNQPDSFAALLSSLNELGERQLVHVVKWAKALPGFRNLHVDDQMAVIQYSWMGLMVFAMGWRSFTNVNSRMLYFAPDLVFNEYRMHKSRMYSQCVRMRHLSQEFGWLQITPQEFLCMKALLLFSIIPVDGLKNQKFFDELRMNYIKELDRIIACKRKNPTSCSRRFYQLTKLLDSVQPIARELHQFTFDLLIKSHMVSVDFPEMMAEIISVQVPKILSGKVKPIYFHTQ
The assay is described as follows: VCAP AR Degradation Assay (AR ELISA, 24 h). Format: cell-based. Conditions: for Y (lowest measured AR level normalized to DMSO control): AR degradation efficiency; for DC50: concentration of compound when AR level = 50% of DMSO control. The essentials:
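VCaP cells in DMEM with 8% FBS exposed for 24 h at 37° C to a 10-point, 1:3 series (final top concentration […]; 0.1% DMSO control). Lysate AR measured by sandwich ELISA and normalized to DMSO as percent of control. DC50, EC50 and lowest AR level (Y) from four-parameter logistic fit.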
A general note: ELISA stands for enzyme-linked immunosorbent assay.

One may read the DC50 as the concentration giving 50% degradation. On to `CCc1cc(N2C(=S)N(c3ccc(C#N)c(C(F)(F)F)c3)C(=O)C2(C)C)ccc1OCC1CCN(CC(=O)Nc2cccc(NC3CCC(=O)NC3=O)c2)CC1` (stereo not shown) [Cmpd 11, 2-(4-((4-(3-(4-cyano-3-(trifluoromethyl)phenyl)-5,5-dimethyl-4-oxo-2-thioxoimidazolidin-1-yl)-2-ethylphenoxy)methyl)piperidin-1-yl)-N-(3-(2,6-dioxopiperidin-3-ylamino)phenyl)acetamide], for which the “Y (lowest measured AR level normalized to DMSO control)” value is reported as “** (25%<Y<=35%)”. For the same molecule, the DC50 (read-out: DC50) was in the range of 0.1 to 0.5 µM.

On to `CCc1cc(N2C(=S)N(c3cnc(C#N)c(C(F)(F)F)c3)C(=O)C23CCC3)ccc1OCCC1CCN([C@@H](C)C(=O)Nc2cc(Cl)cc(NC3CCC(=O)NC3=O)c2)CC1` (stereo partly drawn) [Cmpd 35, (2S)-N-(3-chloro-5-(2,6-dioxopiperidin-3-ylamino)phenyl)-2-(4-(2-(4-(7-(6-cyano-5-(trifluoromethyl)pyridin-3-yl)-8-oxo-6-thioxo-5,7-diazaspiro[3.4]octan-5-yl)-2-ethylphenoxy)ethyl)piperidin-1-yl)propanamide], for which the “Y (lowest measured AR level normalized to DMSO control)” value is “* (0<Y<=25%)”. Besides, the DC50 (read-out: DC50) lay within 0.1 to 0.5 µM.

For `CCc1cc(N2C(=S)N(c3cnc(C#N)c(C(F)(F)F)c3)C(=O)C2(C)C)ccc1OC1CCN(CC(=O)Nc2cc(Cl)cc(NC3CCC(=O)NC3=O)c2)CC1` (stereo not shown) [Cmpd 51, N-(3-chloro-5-(2,6-dioxopiperidin-3-ylamino)phenyl)-2-(4-(4-(3-(6-cyano-5-(trifluoromethyl)pyridin-3-yl)-5,5-dimethyl-4-oxo-2-thioxoimidazolidin-1-yl)-2-ethylphenoxy)piperidin-1-yl)acetamide], the “Y (lowest measured AR level normalized to DMSO control)” value is reported as “* (0<Y<=25%)”. The DC50 (read-out: DC50) is less than 0.1 µM.

For `CCc1cc(N2C(=S)N(c3cnc(C#N)c(C(F)(F)F)c3)C(=O)C23CCC3)ccc1OCC[C@H]1CCN(CC(=O)Nc2cccc(NC3CCC(=O)NC3=O)c2)C(C)(C)C1` (stereo partly drawn) [Cmpd 55, 2-((S)-4-(2-(4-(7-(6-cyano-5-(trifluoromethyl)pyridin-3-yl)-8-oxo-6-thioxo-5,7-diazaspiro[3.4]octan-5-yl)-2-ethylphenoxy)ethyl)-2,2-dimethylpiperidin-1-yl)-N-(3-(2,6-dioxopiperidin-3-ylamino)phenyl)acetamide], the “Y (lowest measured AR level normalized to DMSO control)” value was “* (0<Y<=25%)”. The DC50 (read-out: DC50) is 0.1 to 0.5 µM.

Consider `CCc1cc(N2C(=S)N(c3cnc(C#N)c(C(F)(F)F)c3)C(=O)C2(C)C)ccc1OCCC1CCN(CC(=O)Nc2cc(NC3CCC(=O)NC3=O)ccc2Cl)CC1` (stereo not shown) [Cmpd 14, N-(2-chloro-5-(2,6-dioxopiperidin-3-ylamino)phenyl)-2-(4-(2-(4-(3-(6-cyano-5-(trifluoromethyl)pyridin-3-yl)-5,5-dimethyl-4-oxo-2-thioxoimidazolidin-1-yl)-2-ethylphenoxy)ethyl)piperidin-1-yl)acetamide], for which the “Y (lowest measured AR level normalized to DMSO control)” value is recorded as “* (0<Y<=25%)”. Also, for the setting “read-out: DC50”, the 50% degradation concentration (DC50) lay within 0.1 to 0.5 µM.

Regarding `CCc1cc(N2C(=S)N(c3cnc(C#N)c(C(F)(F)F)c3)C(=O)C2(C)C)ccc1OCC1CCN(CC(=O)Nc2cccc(NC3CCC(=O)NC3=O)c2)CC1` (stereo not shown) [Cmpd 80, 2-(4-((4-(3-(6-cyano-5-(trifluoromethyl)pyridin-3-yl)-5,5-dimethyl-4-oxo-2-thioxoimidazolidin-1-yl)-2-ethylphenoxy)methyl)piperidin-1-yl)-N-(3-(2,6-dioxopiperidin-3-ylamino)phenyl)acetamide], the “Y (lowest measured AR level normalized to DMSO control)” value is reported as “** (25%<Y<=35%)”. The DC50 (read-out: DC50) is less than 0.1 µM.

For `CCc1cc(N2C(=S)N(c3ccc(C#N)c(C(F)(F)F)c3)C(=O)C23CCC3)ccc1OCCC1CCN([C@@H](C)C(=O)Nc2cc(Cl)cc(NC3CCC(=O)NC3=O)c2)CC1` (stereo partly drawn) [Cmpd 32, (2S)-N-(3-chloro-5-(2,6-dioxopiperidin-3-ylamino)phenyl)-2-(4-(2-(4-(7-(4-cyano-3-(trifluoromethyl)phenyl)-8-oxo-6-thioxo-5,7-diazaspiro[3.4]octan-5-yl)-2-ethylphenoxy)ethyl)piperidin-1-yl)propanamide], the “Y (lowest measured AR level normalized to DMSO control)” value is reported as “** (25%<Y<=35%)”. The 50% degradation concentration (DC50) (read-out: DC50) lay within 0.1 to 0.5 µM.

On to `CCc1cc(N2C(=S)N(c3cnc(C#N)c(C(F)(F)F)c3)C(=O)C2(C)C)ccc1OCC[C@@H]1C[C@H]2CC[C@@H](C1)N2CC(=O)Nc1cccc(NC2CCC(=O)NC2=O)c1` (stereo partly drawn) [Cmpd 66, 2-((1R,3s,5S)-3-(2-(4-(3-(6-cyano-5-(trifluoromethyl)pyridin-3-yl)-5,5-dimethyl-4-oxo-2-thioxoimidazolidin-1-yl)-2-ethylphenoxy)ethyl)-8-azabicyclo[3.2.1]octan-8-yl)-N-(3-(2,6-dioxopiperidin-3-ylamino)phenyl)acetamide], for which the “Y (lowest measured AR level normalized to DMSO control)” value is given as “* (0<Y<=25%)” and the half-maximal degradation concentration (DC50) is less than 0.1 µM.

As for `CC1(C)C(=O)N(c2ccc(C#N)c(C(F)(F)F)c2)C(=S)N1c1ccc(OCCC2CCN(CC(=O)Nc3cc(Cl)cc(NC4CCC(=O)NC4=O)c3)CC2)c(CCF)c1` (stereo not shown) [Cmpd 33, N-(3-chloro-5-(2,6-dioxopiperidin-3-ylamino)phenyl)-2-(4-(2-(4-(3-(4-cyano-3-(trifluoromethyl)phenyl)-5,5-dimethyl-4-oxo-2-thioxoimidazolidin-1-yl)-2-(2-fluoroethyl)phenoxy)ethyl)piperidin-1-yl)acetamide], the “Y (lowest measured AR level normalized to DMSO control)” value is listed as “* (0<Y<=25%)”. Where the note is “read-out: DC50”, the DC50 is less than 0.1 µM.

As to `CC1(C)C(=O)N(c2ccc(C#N)c(C(F)(F)F)c2)C(=S)N1c1ccc(OCCC2CCN(CC(=O)Nc3cccc(NC4CCC(=O)NC4=O)c3)CC2)c(F)c1` (stereo not shown) [Cmpd 3, 2-(4-(2-(4-(3-(4-cyano-3-(trifluoromethyl)phenyl)-5,5-dimethyl-4-oxo-2-thioxoimidazolidin-1-yl)-2-fluorophenoxy)ethyl)piperidin-1-yl)-N-(3-(2,6-dioxopiperidin-3-ylamino)phenyl)acetamide], the “Y (lowest measured AR level normalized to DMSO control)” value is reported as “** (25%<Y<=35%)”. Further, under “read-out: DC50”, the DC50 lay in the range of 0.1 to 0.5 µM.

With `CCc1cc(N2C(=S)N(c3cnc(C#N)c(C(F)(F)F)c3)C(=O)C2(C)C)ccc1OCCC1(C)CCN(CC(=O)Nc2cccc(NC3CCC(=O)NC3=O)c2)CC1` (stereo not shown) [Cmpd 61, 2-(4-(2-(4-(3-(6-cyano-5-(trifluoromethyl)pyridin-3-yl)-5,5-dimethyl-4-oxo-2-thioxoimidazolidin-1-yl)-2-ethylphenoxy)ethyl)-4-methylpiperidin-1-yl)-N-(3-(2,6-dioxopiperidin-3-ylamino)phenyl)acetamide], the “Y (lowest measured AR level normalized to DMSO control)” value was “* (0<Y<=25%)”. Further, under “read-out: DC50”, the DC50 is less than 0.1 µM.

In the case of `CCc1cc(N2C(=S)N(c3ccc(C#N)c(C(F)(F)F)c3)C(=O)C2(C)C)ccc1OCCC1CCN(CC(=O)Nc2cc(F)cc(NC3CCC(=O)NC3=O)c2)CC1` (stereo not shown) [Cmpd 19, 2-(4-(2-(4-(3-(4-cyano-3-(trifluoromethyl)phenyl)-5,5-dimethyl-4-oxo-2-thioxoimidazolidin-1-yl)-2-ethylphenoxy)ethyl)piperidin-1-yl)-N-(3-(2,6-dioxopiperidin-3-ylamino)-5-fluorophenyl)acetamide], the “Y (lowest measured AR level normalized to DMSO control)” value was “* (0<Y<=25%)”. Moreover, the 50% degradation concentration (DC50) (read-out: DC50) fell in the range of 0.1 to 0.5 µM.

On to `CCc1cc(N2C(=S)N(c3cnc(C#N)c(C(F)(F)F)c3)C(=O)C2(C)C)ccc1OCCC1(F)CCN(CC(=O)Nc2cccc(NC3CCC(=O)NC3=O)c2)CC1` (stereo not shown) [Cmpd 89, 2-(4-(2-(4-(3-(6-cyano-5-(trifluoromethyl)pyridin-3-yl)-5,5-dimethyl-4-oxo-2-thioxoimidazolidin-1-yl)-2-ethylphenoxy)ethyl)-4-fluoropiperidin-1-yl)-N-(3-(2,6-dioxopiperidin-3-ylamino)phenyl)acetamide], for which the “Y (lowest measured AR level normalized to DMSO control)” value is “* (0<Y<=25%)”. Besides, the DC50 (read-out: DC50) is less than 0.1 µM.

With `CC1(C)C(=O)N(c2ccc(C#N)c(C(F)(F)F)c2)C(=S)N1c1ccc(OCCC2CCN(CC(=O)Nc3cc(Cl)cc(NC4CCC(=O)NC4=O)c3)CC2)c(F)c1` (stereo not shown) [Cmpd 10, N-(3-chloro-5-(2,6-dioxopiperidin-3-ylamino)phenyl)-2-(4-(2-(4-(3-(4-cyano-3-(trifluoromethyl)phenyl)-5,5-dimethyl-4-oxo-2-thioxoimidazolidin-1-yl)-2-fluorophenoxy)ethyl)piperidin-1-yl)acetamide], the “Y (lowest measured AR level normalized to DMSO control)” value was “** (25%<Y<=35%)”. For the setting “read-out: DC50”, the DC50 lay within 0.1 to 0.5 µM.
